Data reported in patent publication US11596622B2, “Mazindol treatment for heroin dependence and substance use disorder” (NLS Pharmaceutics AG, priority 2017, dated 2023).

Experiments:
5-HT transporter(h) = biological target: T1, 5-HT transporter(h) (Homo sapiens, UniProt P31645); assay: Radioligand binding, 5-HT transporter (Eurofins CEREP); settings: 1.0 × 10^−05 M; antagonist radioligand; read-out: percent inhibition of the binding of a radioactively labeled ligand
T1 construct: Eurofins CEREP
T1 sequence (P31645 whole entry): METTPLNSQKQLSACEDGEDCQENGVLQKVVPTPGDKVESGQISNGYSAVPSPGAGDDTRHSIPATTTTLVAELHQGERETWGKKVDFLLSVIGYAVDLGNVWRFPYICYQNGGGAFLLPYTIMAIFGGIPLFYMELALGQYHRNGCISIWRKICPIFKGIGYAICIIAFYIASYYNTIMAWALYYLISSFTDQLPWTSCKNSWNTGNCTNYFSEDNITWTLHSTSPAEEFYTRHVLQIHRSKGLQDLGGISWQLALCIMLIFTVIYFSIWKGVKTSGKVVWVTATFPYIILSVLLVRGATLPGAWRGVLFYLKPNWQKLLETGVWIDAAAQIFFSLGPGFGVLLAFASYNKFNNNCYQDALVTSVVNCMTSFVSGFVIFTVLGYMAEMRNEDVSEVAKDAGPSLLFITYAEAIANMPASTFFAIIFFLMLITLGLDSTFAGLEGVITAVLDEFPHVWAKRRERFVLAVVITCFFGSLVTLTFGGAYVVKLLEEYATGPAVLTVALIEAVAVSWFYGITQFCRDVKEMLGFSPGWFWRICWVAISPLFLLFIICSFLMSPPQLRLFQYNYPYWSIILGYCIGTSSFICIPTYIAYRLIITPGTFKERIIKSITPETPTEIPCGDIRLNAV
From the text: (§1) Table A discloses mazindol and Met tested at […] and the compound binding calculated as a percent inhibition of the binding of a radioactively labeled ligand specific for each target (Eurofins CEREP, France).
(§2) An inhibition or stimulation of more than 50% is considered a significant effect of the test compounds. Fifty percent is a common cut-off for further investigation (i.e. determination of IC50 or EC50 values from concentration-response curves).
(§3) The results are expressed as a percent of control specific binding obtained in the presence of the test compounds:
(§4) [formula] and as a percent inhibition of control specific binding obtained in the presence of the test compounds: […]

Dopamine transporter(h) = biological target: T2, Dopamine transporter(h) (Homo sapiens, UniProt Q01959); assay: Radioligand binding, dopamine transporter (Eurofins CEREP); settings: 1.0 × 10^−05 M; antagonist radioligand; read-out: percent inhibition of the binding of a radioactively labeled ligand
T2 construct: Eurofins CEREP
T2 sequence (Q01959 whole entry): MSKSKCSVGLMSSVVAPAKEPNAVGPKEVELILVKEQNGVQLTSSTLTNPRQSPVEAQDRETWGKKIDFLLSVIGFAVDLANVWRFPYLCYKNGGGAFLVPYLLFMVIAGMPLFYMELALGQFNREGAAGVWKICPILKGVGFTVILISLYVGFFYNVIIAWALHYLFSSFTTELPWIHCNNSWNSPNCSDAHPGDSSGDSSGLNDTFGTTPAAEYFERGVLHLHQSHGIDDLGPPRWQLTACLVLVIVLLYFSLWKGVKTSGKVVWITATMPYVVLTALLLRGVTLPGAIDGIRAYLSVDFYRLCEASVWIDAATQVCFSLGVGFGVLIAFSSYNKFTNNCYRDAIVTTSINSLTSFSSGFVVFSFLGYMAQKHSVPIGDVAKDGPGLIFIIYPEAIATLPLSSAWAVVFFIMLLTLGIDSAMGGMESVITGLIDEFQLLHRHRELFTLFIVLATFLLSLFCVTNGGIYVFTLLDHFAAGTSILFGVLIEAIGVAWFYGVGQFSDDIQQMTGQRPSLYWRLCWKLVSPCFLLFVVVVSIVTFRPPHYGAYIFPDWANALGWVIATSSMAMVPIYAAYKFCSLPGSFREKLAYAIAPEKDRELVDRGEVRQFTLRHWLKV
From the text: as §1, §2, §3, §4

Sprague-Dawley rats = assay: Naloxone precipitated withdrawal syndrome of heroin; type: in vivo; settings: for Abdominal constrictions score (Abd C) / Abnormal posture score (Ab P) / Chromodacryorrhea score (Chr) / Diarrhea score (Diarr) / Erection or ejaculation score (Er Ej) / Escape attempts score (Esc A) / Facial fasciculation or teeth chattering score (F F T C) / Global Score / Irritability score (Irrit) / Profuse salivation score (Pr Sal) / Ptosis score (Ptos) / Swallowing movements score (Sw M) / Weight loss score (W Los) / Wet dog shakes score (W D S): mean
Experimental: The abrupt cessation of chronic opiate use results in a well characterized withdrawal syndrome with symptoms that include pain sensitivity, dysphoria, irritability, restlessness, insomnia, diarrhea and hyperventilation. In the present model, the naloxone-precipitated withdrawal syndrome is measured in rodents. Animals are chronically treated with a drug, e.g. morphine or heroin. Opiate withdrawal syndrome is elicited by an acute injection of the opiate antagonist Naloxone.
The effect of mazindol on heroin withdrawal syndrome elicited by naloxone was examined in Sprague-Dawley rats using a method similar to the one used by Jiang et al. (10),
Animals were subdivided into two groups. One group received heroin two i.p. injections/day for 12 consecutive days and a single injection on the 13th day (total: 25 injections) as exposed in Table 3 group received saline instead of heroin following the same protocol.
On day 13, animals received treatments and were tested according to the following time schedule: • T=0: i.p. injection of heroin (15 mg/kg) or vehicle. • T=2.5 h: animals individually placed in a transparent Plexiglas observation boxes (40×40×40 cm). • T=3.5 h: i.p. injection of treatment (see below). • T=4 h: i.p. injection of naloxone (5 mg/kg), start of test: observation of withdrawal symptoms as indicated in Table 4. • T=5 h: end of test, animals placed back into their home cages.
Animals received the following treatments at T 3.5 h (i.e. 30 min before injection of naloxone and observation of symptoms): • 1) Animals treated with saline during the intoxication period (days 1-12) and at T0 on day 13: • Saline group (N=8): saline (0.9% NaCl). • 2) Animals treated with […] during the intoxication period (days 1-12) and at T0 on day 13: • Hero group (N=14): saline (0.9% NaCl). • Amph 1 group (N=4): D-amphetamine (1 mg/kg). • Maz 0.125 group (N=5): mazindol (0.125 mg/kg). • Maz 0.25 group (N=6): mazindol (0.25 mg/kg). • Maz 0.5 group (N=6): mazindol (0.5 mg/kg). • Maz 1 group (N=6): mazindol (1 mg/kg). • Maz 2 group (N=5): mazindol (2 mg/kg).
A weighting factor was ascribed for each sign from which a score was calculated.
Examples: • Body weight before naloxone injection=241 g; after naloxone injection=236 g: • Weight loss score=2=100×(241−236)/241 • Number of escape attempts=8: • Score for escape attempts=2 • Profuse salivation present: • Score for profuse salivation
A global withdrawal score was then calculated: • Global score=the sum of the scores

[1] = Maz 0.125: heroin-treated rats, mazindol 0.125 mg/kg i.p. 30 min before naloxone 5 mg/kg
[2] = Maz 0.25: heroin-treated rats, mazindol 0.25 mg/kg i.p. 30 min before naloxone 5 mg/kg
[3] = Maz 0.5: heroin-treated rats, mazindol 0.5 mg/kg i.p. 30 min before naloxone 5 mg/kg
[4] = Maz 1: heroin-treated rats, mazindol 1 mg/kg i.p. 30 min before naloxone 5 mg/kg
[5] = Maz 2: heroin-treated rats, mazindol 2 mg/kg i.p. 30 min before naloxone 5 mg/kg

## OC1(c2ccc(Cl)cc2)c2ccccc2C2=NCCN21 (stereo not shown) [Mazindol, 5-(4-chlorophenyl)-2,5-dihydro-3 H-imadazo[2,1-a]isoindol-5-ol]
5-HT transporter(h)
  inhibition at 10 µM: 99.5%
Dopamine transporter(h)
  inhibition at 10 µM: 98.2%
Sprague-Dawley rats; [1]
  Abdominal constrictions score (Abd C): 2.8
  Abnormal posture score (Ab P): 0.0
  Chromodacryorrhea score (Chr): 2.0
  Diarrhea score (Diarr): 0.8
  Erection or ejaculation score (Er Ej): 0.0
  Escape attempts score (Esc A): 1.0
  Facial fasciculation or teeth chattering score (F F T C): 1.6
  Global Score: 13.2
  Irritability score (Irrit): 0.0
  Profuse salivation score (Pr Sal): 0.0
  Ptosis score (Ptos): 0.0
  Swallowing movements score (Sw M): 1.2
  Weight loss score (W Los): 1.0
  Wet dog shakes score (W D S): 2.8
Sprague-Dawley rats; [2]
  Abdominal constrictions score (Abd C): 0.0
  Abnormal posture score (Ab P): 0.0
  Chromodacryorrhea score (Chr): 0.8
  Diarrhea score (Diarr): 1.0
  Erection or ejaculation score (Er Ej): 0.0
  Escape attempts score (Esc A): 0.7
  Facial fasciculation or teeth chattering score (F F T C): 2.0
  Global Score: 8.3
  Irritability score (Irrit): 0.0
  Profuse salivation score (Pr Sal): 0.0
  Ptosis score (Ptos): 0.0
  Swallowing movements score (Sw M): 1.0
  Weight loss score (W Los): 1.2
  Wet dog shakes score (W D S): 1.7
Sprague-Dawley rats; [3]
  Abdominal constrictions score (Abd C): 0.0
  Abnormal posture score (Ab P): 0.0
  Chromodacryorrhea score (Chr): 0.0
  Diarrhea score (Diarr): 1.0
  Erection or ejaculation score (Er Ej): 0.0
  Escape attempts score (Esc A): 1.7
  Facial fasciculation or teeth chattering score (F F T C): 2.0
  Global Score: 9.7
  Irritability score (Irrit): 0.0
  Profuse salivation score (Pr Sal): 0.0
  Ptosis score (Ptos): 0.0
  Swallowing movements score (Sw M): 0.3
  Weight loss score (W Los): 1.7
  Wet dog shakes score (W D S): 3.0
Sprague-Dawley rats; [4]
  Abdominal constrictions score (Abd C): 0.0
  Abnormal posture score (Ab P): 0.0
  Chromodacryorrhea score (Chr): 1.7
  Diarrhea score (Diarr): 1.7
  Erection or ejaculation score (Er Ej): 0.5
  Escape attempts score (Esc A): 2.5
  Facial fasciculation or teeth chattering score (F F T C): 2.0
  Global Score: 14.0
  Irritability score (Irrit): 0.0
  Profuse salivation score (Pr Sal): 1.2
  Ptosis score (Ptos): 0.0
  Swallowing movements score (Sw M): 0.3
  Weight loss score (W Los): 3.2
  Wet dog shakes score (W D S): 1.0
Sprague-Dawley rats; [5]
  Abdominal constrictions score (Abd C): 0.0
  Abnormal posture score (Ab P): 0.6
  Chromodacryorrhea score (Chr): 1.0
  Diarrhea score (Diarr): 2.0
  Erection or ejaculation score (Er Ej): 0.0
  Escape attempts score (Esc A): 1.6
  Facial fasciculation or teeth chattering score (F F T C): 0.4
  Global Score: 10.4
  Irritability score (Irrit): 0.0
  Profuse salivation score (Pr Sal): 1.4
  Ptosis score (Ptos): 0.0
  Swallowing movements score (Sw M): 0.0
  Weight loss score (W Los): 3.0
  Wet dog shakes score (W D S): 0.4
Sprague-Dawley rats; mazindol 2 mg/kg
  effect on the score for escape attempt: increased
Sprague-Dawley rats; mazindol 0.125-2 mg/kg
  effect on the scores for weight loss and diarrhea: Did not significantly reduce
  reduction of the global score (FIG. 4): significant at all doses except 0.125 mg/kg
  reduction of the score for facial fasciculation or teeth chattering (FIG. 6): significant at 2 mg/kg
  reduction of the score for profuse salivation (FIG. 6): significant at all doses except 2 mg/kg
  reduction of the score for wet dog shake (FIG. 5): significant effect at 1 and 2 mg/kg
Sprague-Dawley rats; mazindol, significant at 0.25, 0.5, 1 and 2 mg/kg, but not at 0.125 mg/kg
  effect on naloxone precipitated withdrawal symptoms of heroin: decreased the naloxone precipitated withdrawal symptoms of heroin
